Laboratory results from patent US9908912B2, “Triclosan derivatives and uses thereof” (priority 2012, dated 2018).
Converted amounts (≈) assume the structure as drawn.

Legend:
S. haemolyticus = experiment: MIC in Nutrient Agar; format: cell-based, Staphylococcus haemolyticus; details: Nutrient Agar containing 0.1 μg/ml of inducer; 37° C., 24 hours
Procedure: (§1) The triclosan-glycosides were added to Nutrient Agar (Oxoid CM0003; Thermofisher Scientific) and organisms were transferred onto the plates surface using a multi-point inoculation device (Oxoid Cathra, Thermofisher Scientific). The latter is essentially a metal plate containing a number of needles. Each needle tip (usually 36 per plate) dips into an organism suspension (in phosphate buffered saline; PBS) and the needles are then moved over the agar plate and lowered onto its surface. In this way the growth of colonies of up to 36 different organisms can be observed on one plate.
(§2) Nutrient Agar No. 2 was prepared according to the manufacturers instructions, autoclaved and cooled to 50° C. Test compounds were then added as filter sterilised solutions (50:50 deionised water:ethanol), to give final concentrations from 256 μg/ml to 0 μg/ml in doubling dilutions. […] The mixtures were swirled then four plates (25 ml molten agar) were poured for each concentration. Plates were dried in a laminar flow cabinet then inoculated with overnight cultures of organisms that had been decimally diluted twice in sterile saline solution (approximately 10^7 cfu/ml) using a multi-point inoculator. Plates were then incubated at 37° C. for 24 hours. MICs were determined as the concentration at which no growth was observed.

[1] = test system: Crono. sakazakii ATCC 29544; experiment: MIC in Nutrient Broth No. 2; format: cell-based, Cronobacter sakazakii; details: Nutrient Broth No. 2
Procedure: (§3) Bacteria species as indicated in Table 1 were incubated for approximately 24 hours at 37° C.
(§4) The tests were repeated with the addition of inducers. Methyl glycoside was the main inducer used, but other suitable inducers include isopropyl-β-D-thiogalactopyranoside, p-nitrophenyl-α-L-arabinopyranoside and p-nitrophenyl-β-D-xylopyranoside. Concentration of inducer in all cases was 100 μg/ml.

[2] = test system: Strep. pneumoniae ATCC 6305; experiment: MIC in Nutrient Broth No. 2; format: cell-based, Streptococcus pneumoniae; details: Nutrient Broth No. 2
Procedure: as §3, §4

[3] = test system: Kleb. aerogenes NCTC 88167; experiment: MIC in Nutrient Broth No. 2; format: cell-based, Klebsiella aerogenes; details: Nutrient Broth No. 2
Procedure: as §3, §4

S. epidermidis = experiment: MIC in Nutrient Agar; format: cell-based, Staphylococcus epidermidis; details: 3 strains; Nutrient Agar containing 0.1 μg/ml of inducer; 37° C., 24 hours
Procedure: as §1, §2

S. saprophyticus = experiment: MIC in Nutrient Agar; format: cell-based, Staphylococcus saprophyticus; details: Nutrient Agar containing 0.1 μg/ml of inducer; 37° C., 24 hours
Procedure: as §1, §2

[4] = test system: Staph. saprophyticus ATCC 15305; experiment: MIC in Nutrient Broth No. 2; format: cell-based, Staphylococcus saprophyticus; details: Nutrient Broth No. 2
Procedure: as §3, §4

Ent. aerogenes = experiment: MIC in Nutrient Agar; format: cell-based, Enterobacter aerogenes; details: Nutrient Agar containing 0.1 μg/ml of inducer; 37° C., 24 hours
Procedure: as §1, §2

Ent. cloacae = experiment: MIC in Nutrient Agar; format: cell-based, Enterobacter cloacae; details: Nutrient Agar containing 0.1 μg/ml of inducer; 37° C., 24 hours
Procedure: as §1, §2

Cr. sakazakii = experiment: MIC in Nutrient Agar; format: cell-based, Cronobacter sakazakii; details: Nutrient Agar containing 0.1 μg/ml of inducer; 37° C., 24 hours
Procedure: as §1, §2

Str. pyogenes = experiment: MIC in Nutrient Agar; format: cell-based, Streptococcus pyogenes; details: Nutrient Agar containing 0.1 μg/ml of inducer; 37° C., 24 hours
Procedure: as §1, §2

Staph. aureus = experiment: MIC in Nutrient Broth No. 2; format: cell-based, Staphylococcus aureus; details: 8 strains, Nutrient Broth No. 2
Procedure: as §3, §4

Ps. aeruginosa = experiment: MIC in Nutrient Agar; format: cell-based; details: Nutrient Agar containing 0.1 μg/ml of inducer; 37° C., 24 hours
Procedure: as §1, §2

Hafnia alvei = experiment: MIC in Nutrient Agar; format: cell-based; details: Nutrient Agar containing 0.1 μg/ml of inducer; 37° C., 24 hours
Procedure: as §1, §2

Bacillus cereus = experiment: MIC in Nutrient Agar; format: cell-based; details: Nutrient Agar containing 0.1 μg/ml of inducer; 37° C., 24 hours
Procedure: as §1, §2

Ent. faecalis = experiment: MIC in Nutrient Agar; format: cell-based, Enterococcus faecalis; details: Nutrient Agar containing 0.1 μg/ml of inducer; 37° C., 24 hours
Procedure: as §1, §2

C. freundii = experiment: MIC in Nutrient Agar; format: cell-based, Citrobacter freundii; details: Nutrient Agar containing 0.1 μg/ml of inducer; 37° C., 24 hours
Procedure: as §1, §2

Ent. cloacae ATCC 13047 = experiment: MIC in Nutrient Broth No. 2; format: cell-based, Enterobacter cloacae; details: Nutrient Broth No. 2
Procedure: as §3, §4

Kleb. aerogenes = experiment: MIC in Nutrient Agar; format: cell-based, Klebsiella aerogenes; details: Nutrient Agar containing 0.1 μg/ml of inducer; 37° C., 24 hours
Procedure: as §1, §2

[5] = test system: Citrobacter freundii OCC 851; experiment: MIC in Nutrient Broth No. 2; format: cell-based; details: Nutrient Broth No. 2
Procedure: as §3, §4

Hafnia alvei ATCC 13337 = experiment: MIC in Nutrient Broth No. 2; format: cell-based; details: Nutrient Broth No. 2
Procedure: as §3, §4

[6] = test system: Enterococcus faecium ATCC 19434; experiment: MIC in Nutrient Broth No. 2; format: cell-based; details: Nutrient Broth No. 2
Procedure: as §3, §4

[7] = test system: Bacillus subtilis NCTC 10073; experiment: MIC in Nutrient Broth No. 2; format: cell-based; details: Nutrient Broth No. 2
Procedure: as §3, §4

[8] = test system: Enterobacter aerogenes ATCC 13048; experiment: MIC in Nutrient Broth No. 2; format: cell-based; details: Nutrient Broth No. 2
Procedure: as §3, §4

[9] = test system: Serratia marcescens OCC 217; experiment: MIC in Nutrient Broth No. 2; format: cell-based; details: Nutrient Broth No. 2
Procedure: as §3, §4

[10] = test system: Bacillus cereus ATCC 14579; experiment: MIC in Nutrient Broth No. 2; format: cell-based; details: Nutrient Broth No. 2
Procedure: as §3, §4

[11] = test system: Ps. Aeruginosa ATCC 27853; experiment: MIC in Nutrient Broth No. 2; format: cell-based; details: Nutrient Broth No. 2
Procedure: as §3, §4

[12] = test system: Enterococcus faecalis ATCC 29212; experiment: MIC in Nutrient Broth No. 2; format: cell-based; details: Nutrient Broth No. 2
Procedure: as §3, §4

Salmonella = experiment: MIC in Nutrient Broth No. 2; format: cell-based; details: 11 strains, Nutrient Broth No. 2
Procedure: as §3, §4

Proteus vulgaris OCC 195 = experiment: MIC in Nutrient Broth No. 2; format: cell-based; details: Nutrient Broth No. 2
Procedure: as §3, §4

Escherichia coli = experiment: MIC in Nutrient Broth No. 2; format: cell-based; details: 8 strains, Nutrient Broth No. 2
Procedure: as §3, §4

[13] = test system: Proteus mirabilis ATCC 12453; experiment: MIC in Nutrient Broth No. 2; format: cell-based; details: Nutrient Broth No. 2
Procedure: as §3, §4

[14] = test system: Aeromonas hydrophila OCC 778; experiment: MIC in Nutrient Broth No. 2; format: cell-based; details: Nutrient Broth No. 2
Procedure: as §3, §4

OC[C@H]1O[C@H](Oc2cc(Cl)ccc2Oc2ccc(Cl)cc2Cl)[C@H](O)[C@@H](O)[C@@H]1O [α-D-Glucoside, triclosan-α-D-glucopyranoside]
MIC (S. haemolyticus): 1 µg/mL (≈ 2.21 µM)
MIC ([1]; with inducer 100 μg/ml): 4 µg/mL (≈ 8.86 µM)
MIC ([1]; without inducer): 8 µg/mL (≈ 17.7 µM)
MIC ([2]; with inducer 100 μg/ml): 16 µg/mL (≈ 35.4 µM)
MIC ([2]; without inducer): 32 µg/mL (≈ 70.8 µM)
MIC ([3]; with inducer 100 μg/ml): 4 µg/mL (≈ 8.86 µM)
MIC ([3]; without inducer): 2 µg/mL (≈ 4.43 µM)
MIC (S. epidermidis): 0.5 to 1 µg/mL
MIC (S. saprophyticus): 4 µg/mL (≈ 8.86 µM)
MIC ([4]; with inducer 100 μg/ml): 4 µg/mL (≈ 8.86 µM)
MIC ([4]; without inducer): 4 µg/mL (≈ 8.86 µM)
MIC (Ent. aerogenes): 4 µg/mL (≈ 8.86 µM)
MIC (Ent. cloacae): 1 µg/mL (≈ 2.21 µM)
MIC (Cr. sakazakii): 4 µg/mL (≈ 8.86 µM)
MIC (Str. pyogenes): 64 µg/mL (≈ 142 µM)
MIC (Staph. aureus; with inducer 100 μg/ml): 1 µg/mL (≈ 2.21 µM)
MIC (Staph. aureus; without inducer): 1 µg/mL (≈ 2.21 µM)
MIC (Ps. aeruginosa): >256 µg/mL
MIC (Hafnia alvei): 0.5 µg/mL (≈ 1.11 µM)
MIC (Bacillus cereus): 64 µg/mL (≈ 142 µM)
MIC (Ent. faecalis): 128 µg/mL (≈ 283 µM)
MIC (C. freundii): 4 µg/mL (≈ 8.86 µM)
MIC (Ent. cloacae ATCC 13047; with inducer 100 μg/ml): 1 µg/mL (≈ 2.21 µM)
MIC (Ent. cloacae ATCC 13047; without inducer): 1 µg/mL (≈ 2.21 µM)
MIC (Kleb. aerogenes): 2 µg/mL (≈ 4.43 µM)
MIC ([5]; with inducer 100 μg/ml): 4 µg/mL (≈ 8.86 µM)
MIC ([5]; without inducer): 4 µg/mL (≈ 8.86 µM)
MIC (Hafnia alvei ATCC 13337; with inducer 100 μg/ml): 1 µg/mL (≈ 2.21 µM)
MIC (Hafnia alvei ATCC 13337; without inducer): 1 µg/mL (≈ 2.21 µM)
MIC ([6]; with inducer 100 μg/ml): 256 µg/mL (≈ 567 µM)
MIC ([6]; without inducer): 256 µg/mL (≈ 567 µM)
MIC ([7]; with inducer 100 μg/ml): 32 µg/mL (≈ 70.8 µM)
MIC ([7]; without inducer): 32 µg/mL (≈ 70.8 µM)
MIC ([8]; with inducer 100 μg/ml): 4 µg/mL (≈ 8.86 µM)
MIC ([8]; without inducer): 8 µg/mL (≈ 17.7 µM)
MIC ([9]; with inducer 100 μg/ml): >256 µg/mL
MIC ([9]; without inducer): >256 µg/mL
MIC ([10]; with inducer 100 μg/ml): 128 µg/mL (≈ 283 µM)
MIC ([10]; without inducer): 128 µg/mL (≈ 283 µM)
MIC ([11]; with inducer 100 μg/ml): >256 µg/mL
MIC ([11]; without inducer): >256 µg/mL
MIC ([12]; with inducer 100 μg/ml): 128 µg/mL (≈ 283 µM)
MIC ([12]; without inducer): 128 µg/mL (≈ 283 µM)
MIC (Salmonella; with inducer 100 μg/ml): 1 to 4 µg/mL
MIC (Salmonella; without inducer): 2 to 8 µg/mL
MIC (Proteus vulgaris OCC 195; with inducer 100 μg/ml): 4 µg/mL (≈ 8.86 µM)
MIC (Proteus vulgaris OCC 195; without inducer): 4 µg/mL (≈ 8.86 µM)
MIC (Escherichia coli; with inducer 100 μg/ml): 1 to 4 µg/mL
MIC (Escherichia coli; without inducer): 2 to 8 µg/mL
MIC ([13]; with inducer 100 μg/ml): 2 µg/mL (≈ 4.43 µM)
MIC ([13]; without inducer): 2 µg/mL (≈ 4.43 µM)
MIC ([14]; with inducer 100 μg/ml): 256 µg/mL (≈ 567 µM)
MIC ([14]; without inducer): 256 µg/mL (≈ 567 µM)
